Reference: patent publication US20260356819A1, “OXOISOINDOLINYL-SUBSTITUTED […] DERIVATIVE AND USE THEREOF” (GLUETACS THERAPEUTICS (SHANGHAI) CO., LTD., priority 2023, published 2026)

What was measured:
Format in all cases: cell-based
Conditions in all cases: compounds at 50 nM and 500 nM
GSPT1 = biological target: T1, GSPT1 (Homo sapiens, UniProt P15170+Q96SW2); assay: Western blot degradation of GSPT1 in hPBMCs (24 h)
T1 construct: The supernatant was aspirated as the extracted total cell protein; endogenous in cells; host or cells: human peripheral blood mononuclear cells (hPBMCs)
Outline: (§1)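 hPBMCs (1×10^6 cells/mL) exposed to compound at 50 nM and 500 nM for 24 h, DMSO as reference. Lysates run on SDS-PAGE and immunoblotted. Band grayscale normalized to internal control gives % protein remaining; DC50 from fitted concentration-response of band intensity versus DMSO.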

IKZF1 = biological target: T2, IKZF1 (Homo sapiens, UniProt Q13422+Q96SW2); assay: Western blot degradation of IKZF1 in hPBMCs (24 h)
T2 construct: The supernatant was aspirated as the extracted total cell protein; endogenous in cells; host or cells: human peripheral blood mononuclear cells (hPBMCs)
Outline: as §1

IKZF3 = biological target: T3, IKZF3 (Homo sapiens, UniProt Q96SW2+Q9UKT9); assay: Western blot degradation of IKZF3 in hPBMCs (24 h)
T3 construct: The supernatant was aspirated as the extracted total cell protein; endogenous in cells; host or cells: human peripheral blood mononuclear cells (hPBMCs)
Outline: as §1

WEE1 = biological target: T4, WEE1 (Homo sapiens, UniProt P30291+Q96SW2); assay: Western blot degradation of WEE1 in hPBMCs (24 h)
T4 construct: The supernatant was aspirated as the extracted total cell protein; endogenous in cells; host or cells: human peripheral blood mononuclear cells (hPBMCs)
Outline: as §1

CK1α = biological target: T5, CK1α (Homo sapiens, UniProt P48729+Q96SW2); assay: Western blot degradation of CK1α in hPBMCs (24 h)
T5 construct: The supernatant was aspirated as the extracted total cell protein; endogenous in cells; host or cells: human peripheral blood mononuclear cells (hPBMCs)
Outline: as §1

IKZF2 = biological target: T6, IKZF2 (Homo sapiens, UniProt Q96SW2+Q9UKS7); assay: Western blot degradation of IKZF2 in hPBMCs (24 h)
T6 construct: The supernatant was aspirated as the extracted total cell protein; endogenous in cells; host or cells: human peripheral blood mononuclear cells (hPBMCs)
Outline: as §1

T4 sequence (P30291 whole entry): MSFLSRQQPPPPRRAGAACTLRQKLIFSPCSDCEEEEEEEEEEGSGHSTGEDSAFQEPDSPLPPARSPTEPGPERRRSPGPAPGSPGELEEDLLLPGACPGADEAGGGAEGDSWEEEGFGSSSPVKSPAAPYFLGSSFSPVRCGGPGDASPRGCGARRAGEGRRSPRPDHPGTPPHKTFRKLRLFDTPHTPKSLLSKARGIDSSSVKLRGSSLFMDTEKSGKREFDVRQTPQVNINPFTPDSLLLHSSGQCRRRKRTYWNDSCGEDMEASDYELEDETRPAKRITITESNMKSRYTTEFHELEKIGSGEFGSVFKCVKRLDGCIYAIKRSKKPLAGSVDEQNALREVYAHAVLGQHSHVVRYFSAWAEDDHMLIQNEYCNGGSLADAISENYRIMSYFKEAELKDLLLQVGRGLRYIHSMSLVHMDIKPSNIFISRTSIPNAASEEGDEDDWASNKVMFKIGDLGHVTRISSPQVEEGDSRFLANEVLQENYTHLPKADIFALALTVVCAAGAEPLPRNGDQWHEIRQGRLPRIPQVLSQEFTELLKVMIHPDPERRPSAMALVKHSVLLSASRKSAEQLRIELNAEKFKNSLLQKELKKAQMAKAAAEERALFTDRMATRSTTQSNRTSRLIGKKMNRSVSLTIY
T4 sequence (Q96SW2 whole entry): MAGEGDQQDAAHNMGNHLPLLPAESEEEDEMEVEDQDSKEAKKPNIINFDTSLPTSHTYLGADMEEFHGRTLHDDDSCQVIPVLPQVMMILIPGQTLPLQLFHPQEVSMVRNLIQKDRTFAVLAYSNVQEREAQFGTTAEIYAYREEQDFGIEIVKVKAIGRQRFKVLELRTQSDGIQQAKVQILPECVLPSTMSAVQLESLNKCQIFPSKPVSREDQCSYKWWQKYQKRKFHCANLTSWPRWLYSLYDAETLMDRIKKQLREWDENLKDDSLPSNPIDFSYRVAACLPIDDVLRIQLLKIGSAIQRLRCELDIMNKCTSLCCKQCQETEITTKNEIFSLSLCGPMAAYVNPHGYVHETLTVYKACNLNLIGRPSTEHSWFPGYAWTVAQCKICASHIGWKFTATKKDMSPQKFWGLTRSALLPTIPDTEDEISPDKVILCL
T4 sequence (Q16531 whole entry partner): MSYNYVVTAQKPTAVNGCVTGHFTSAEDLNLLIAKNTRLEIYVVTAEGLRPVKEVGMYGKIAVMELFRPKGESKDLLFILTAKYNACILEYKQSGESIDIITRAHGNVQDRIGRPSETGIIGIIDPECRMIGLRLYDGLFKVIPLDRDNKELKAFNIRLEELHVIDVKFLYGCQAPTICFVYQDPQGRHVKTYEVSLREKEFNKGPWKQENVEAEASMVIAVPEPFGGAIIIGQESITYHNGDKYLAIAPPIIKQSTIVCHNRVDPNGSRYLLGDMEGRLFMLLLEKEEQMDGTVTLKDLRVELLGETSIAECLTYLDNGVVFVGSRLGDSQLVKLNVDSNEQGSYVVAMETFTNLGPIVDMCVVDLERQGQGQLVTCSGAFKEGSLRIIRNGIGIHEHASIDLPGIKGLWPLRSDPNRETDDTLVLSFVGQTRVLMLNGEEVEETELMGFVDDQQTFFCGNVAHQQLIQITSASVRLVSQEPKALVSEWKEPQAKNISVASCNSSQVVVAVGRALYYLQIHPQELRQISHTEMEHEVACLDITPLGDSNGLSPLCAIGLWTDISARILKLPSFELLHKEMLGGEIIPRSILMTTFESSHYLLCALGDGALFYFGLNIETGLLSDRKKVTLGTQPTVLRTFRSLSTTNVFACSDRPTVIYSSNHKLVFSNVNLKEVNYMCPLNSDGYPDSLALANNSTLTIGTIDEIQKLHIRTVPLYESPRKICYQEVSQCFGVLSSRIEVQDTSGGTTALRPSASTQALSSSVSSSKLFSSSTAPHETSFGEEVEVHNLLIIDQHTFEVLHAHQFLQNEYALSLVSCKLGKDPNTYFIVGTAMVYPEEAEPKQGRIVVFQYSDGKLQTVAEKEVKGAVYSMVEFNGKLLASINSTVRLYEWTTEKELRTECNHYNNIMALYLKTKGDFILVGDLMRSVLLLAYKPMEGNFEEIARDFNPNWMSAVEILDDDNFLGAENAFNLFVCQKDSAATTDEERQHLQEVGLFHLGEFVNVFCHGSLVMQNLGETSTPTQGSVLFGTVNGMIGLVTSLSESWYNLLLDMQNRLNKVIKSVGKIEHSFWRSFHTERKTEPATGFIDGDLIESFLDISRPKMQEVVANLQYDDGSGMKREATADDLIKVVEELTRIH
T3 sequence (Q9UKT9 whole entry): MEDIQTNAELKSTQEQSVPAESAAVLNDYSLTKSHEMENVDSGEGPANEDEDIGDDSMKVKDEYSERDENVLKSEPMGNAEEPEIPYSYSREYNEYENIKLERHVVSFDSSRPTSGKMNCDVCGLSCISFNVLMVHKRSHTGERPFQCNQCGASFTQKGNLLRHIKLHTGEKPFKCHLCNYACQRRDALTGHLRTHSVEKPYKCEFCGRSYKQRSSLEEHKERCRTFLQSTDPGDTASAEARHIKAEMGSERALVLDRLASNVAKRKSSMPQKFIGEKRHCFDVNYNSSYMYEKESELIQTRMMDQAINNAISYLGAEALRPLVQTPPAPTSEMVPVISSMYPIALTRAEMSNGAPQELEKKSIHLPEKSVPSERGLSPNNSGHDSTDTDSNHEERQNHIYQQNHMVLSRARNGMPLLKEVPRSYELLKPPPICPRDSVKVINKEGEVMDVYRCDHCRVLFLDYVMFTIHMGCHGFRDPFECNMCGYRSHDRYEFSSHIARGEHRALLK
T3 sequence (Q96SW2 whole entry): as the sequence (Q96SW2 whole entry) above
T3 sequence (Q16531 whole entry partner): as the sequence (Q16531 whole entry partner) above
T6 sequence (Q9UKS7 whole entry): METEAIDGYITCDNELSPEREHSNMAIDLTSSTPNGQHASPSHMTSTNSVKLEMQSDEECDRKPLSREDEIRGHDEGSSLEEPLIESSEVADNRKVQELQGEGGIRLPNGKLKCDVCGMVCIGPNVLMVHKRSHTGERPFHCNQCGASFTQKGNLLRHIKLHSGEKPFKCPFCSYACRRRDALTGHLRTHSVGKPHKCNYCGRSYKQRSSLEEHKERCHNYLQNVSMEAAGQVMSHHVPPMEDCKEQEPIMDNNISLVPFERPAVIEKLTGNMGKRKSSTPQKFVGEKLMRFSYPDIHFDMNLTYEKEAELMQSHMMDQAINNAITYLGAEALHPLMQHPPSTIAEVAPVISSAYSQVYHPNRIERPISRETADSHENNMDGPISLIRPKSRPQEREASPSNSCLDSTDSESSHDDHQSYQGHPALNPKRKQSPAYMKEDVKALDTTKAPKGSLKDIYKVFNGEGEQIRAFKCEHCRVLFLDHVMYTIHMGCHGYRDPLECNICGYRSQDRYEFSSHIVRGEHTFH
T6 sequence (Q96SW2 whole entry): as the sequence (Q96SW2 whole entry) above
T6 sequence (Q16531 whole entry partner): as the sequence (Q16531 whole entry partner) above
T2 sequence (Q13422 whole entry): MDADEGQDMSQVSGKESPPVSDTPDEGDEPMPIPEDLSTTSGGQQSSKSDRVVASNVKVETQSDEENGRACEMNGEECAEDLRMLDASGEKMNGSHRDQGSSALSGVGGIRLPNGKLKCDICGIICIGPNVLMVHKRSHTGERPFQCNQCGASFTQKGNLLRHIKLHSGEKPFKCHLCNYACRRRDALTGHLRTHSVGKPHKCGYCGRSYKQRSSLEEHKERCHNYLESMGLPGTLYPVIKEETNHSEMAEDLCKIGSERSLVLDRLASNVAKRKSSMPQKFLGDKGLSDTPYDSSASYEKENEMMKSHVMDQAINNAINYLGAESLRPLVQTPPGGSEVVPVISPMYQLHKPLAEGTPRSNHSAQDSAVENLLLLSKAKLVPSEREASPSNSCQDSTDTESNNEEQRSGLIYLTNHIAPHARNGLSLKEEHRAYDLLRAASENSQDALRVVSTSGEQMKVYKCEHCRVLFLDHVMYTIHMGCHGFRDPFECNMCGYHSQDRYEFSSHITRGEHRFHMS
T2 sequence (Q96SW2 whole entry): as the sequence (Q96SW2 whole entry) above
T2 sequence (Q16531 whole entry partner): as the sequence (Q16531 whole entry partner) above
T1 sequence (P15170 whole entry): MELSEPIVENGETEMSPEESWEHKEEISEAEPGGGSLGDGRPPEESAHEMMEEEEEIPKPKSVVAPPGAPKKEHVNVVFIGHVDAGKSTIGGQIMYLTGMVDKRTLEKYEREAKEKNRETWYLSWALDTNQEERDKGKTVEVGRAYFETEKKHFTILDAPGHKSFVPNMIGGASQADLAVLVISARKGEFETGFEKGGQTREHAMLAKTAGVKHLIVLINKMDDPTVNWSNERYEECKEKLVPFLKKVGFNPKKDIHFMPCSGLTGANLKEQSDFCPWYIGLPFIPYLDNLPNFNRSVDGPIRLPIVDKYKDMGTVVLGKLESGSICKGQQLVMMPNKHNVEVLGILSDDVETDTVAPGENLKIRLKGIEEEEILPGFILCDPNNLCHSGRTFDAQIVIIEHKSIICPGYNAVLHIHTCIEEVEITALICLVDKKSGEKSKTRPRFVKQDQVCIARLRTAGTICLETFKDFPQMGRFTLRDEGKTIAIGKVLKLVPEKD
T1 sequence (Q96SW2 whole entry): as the sequence (Q96SW2 whole entry) above
T1 sequence (Q16531 whole entry partner): as the sequence (Q16531 whole entry partner) above

Structure (SMILES)	GSPT1 substrate protein remaining % (GSPT1)	IKZF1 substrate protein remaining % (IKZF1)	IKZF3 substrate protein remaining % (IKZF3)	WEE1 substrate protein remaining % (WEE1)	CK1α substrate protein remaining % (CK1α)	IKZF2 substrate protein remaining % (IKZF2)
CC1CN(Cc2ccc3c(c2)CN(N2CCC(=O)NC2=O)C3=O)CC(C)N1C(c1ccccc1)c1ccccc1 (stereo not drawn) [GT-06431, 1-(5-((4-benzhydryl-3,5-dimethylpiperazin-1-yl)methyl)-1-oxoisoindolin-2-yl)dihydropyrimidine-2,4(1H,3H)-dione]	A (0% ≤ substrate protein remaining % ≤80%)	A (0% ≤ substrate protein remaining % ≤80%)	B (80%< substrate protein remaining % ≤100%)	A (0% ≤ substrate protein remaining % ≤80%)	B (80%< substrate protein remaining % ≤100%)	A (0% ≤ substrate protein remaining % ≤80%)
O=C1CCN(N2C(=O)c3ccc(CN4CCC(c5ccnc(F)c5F)CC4)cc3C2=O)C(=O)N1 [GT-07493, 5-((4-(2,3-difluoropyridin-4-yl)piperidin-1-yl)methyl)-2-(2,4-dioxotetrahydropyrimidin-1(2H)-yl)isoindoline-1,3-dione]	B (80%< substrate protein remaining % ≤100%)	B (80%< substrate protein remaining % ≤100%)	A (0% ≤ substrate protein remaining % ≤80%)	B (80%< substrate protein remaining % ≤100%)	A (0% ≤ substrate protein remaining % ≤80%)	B (80%< substrate protein remaining % ≤100%)
O=C1CCN(N2Cc3cc(CN4C5CCC4CN(c4cccc(Cl)c4Cl)C5)ccc3C2=O)C(=O)N1 [GT-07430, 1-(5-((3-(2,3-dichlorophenyl)-3,8-diazabicyclo[3.2.1]octan-8-yl)methyl)-1-oxoisoindolin-2-yl)dihydropyrimidine-2,4(1H,3H)-dione]	A (0% ≤ substrate protein remaining % ≤80%)	A (0% ≤ substrate protein remaining % ≤80%)	B (80%< substrate protein remaining % ≤100%)	B (80%< substrate protein remaining % ≤100%)	A (0% ≤ substrate protein remaining % ≤80%)	B (80%< substrate protein remaining % ≤100%)
O=C1CCN(N2C(=O)c3ccc(CN4CCN(c5ccccc5)CC4)cc3C2=O)C(=O)N1 [GT-06719, 2-(2,4-dioxotetrahydropyrimidin-1(2H)-yl)-5-((4-phenylpiperazin-1-yl)methyl)isoindoline-1,3-dione]	B (80%< substrate protein remaining % ≤100%)	B (80%< substrate protein remaining % ≤100%)	A (0% ≤ substrate protein remaining % ≤80%)	B (80%< substrate protein remaining % ≤100%)	B (80%< substrate protein remaining % ≤100%)	B (80%< substrate protein remaining % ≤100%)
COc1ccc(N2CCN(Cc3ccc4c(c3)CN(N3CCC(=O)NC3=O)C4=O)CC2)cc1 [GT-06767, 1-(5-((4-(4-methoxyphenyl)piperazin-1-yl)methyl)-1-oxoisoindolin-2-yl)dihydropyrimidine-2,4(1H,3H)-dione]	A (0% ≤ substrate protein remaining % ≤80%)	A (0% ≤ substrate protein remaining % ≤80%)	A (0% ≤ substrate protein remaining % ≤80%)	A (0% ≤ substrate protein remaining % ≤80%)	A (0% ≤ substrate protein remaining % ≤80%)	A (0% ≤ substrate protein remaining % ≤80%)
O=C1CCN(N2C(=O)c3ccc(CN4CCN(c5nc(Cl)nc6c5SCC6)CC4)cc3C2=O)C(=O)N1 [GT-08448, 5-((4-(2-chloro-6,7-dihydrothieno[3,2-d]pyrimidin-4-yl)piperazin-1-yl)methyl)-2-(2,4-dioxotetrahydropyrimidin-1(2H)-yl)isoindoline-1,3-dione]	A (0% ≤ substrate protein remaining % ≤80%)	B (80%< substrate protein remaining % ≤100%)	B (80%< substrate protein remaining % ≤100%)	B (80%< substrate protein remaining % ≤100%)	B (80%< substrate protein remaining % ≤100%)	B (80%< substrate protein remaining % ≤100%)
O=C1CCN(N2Cc3cc(CN4CCN(c5ncnc6scc(-c7ccccc7)c56)CC4)ccc3C2=O)C(=O)N1 [GT-08065, 1-(1-oxo-5-((4-(5-phenylthieno[2,3-d]pyrimidin-4-yl)piperazin-1-yl)methyl)isoindolin-2-yl)dihydropyrimidine-2,4(1H,3H)-dione]	B (80%< substrate protein remaining % ≤100%)	B (80%< substrate protein remaining % ≤100%)	B (80%< substrate protein remaining % ≤100%)	B (80%< substrate protein remaining % ≤100%)	B (80%< substrate protein remaining % ≤100%)	A (0% ≤ substrate protein remaining % ≤80%)
O=C1CCN(N2C(=O)c3ccc(CN4CCN(c5ncnc6sc7c(c56)CCC7)CC4)cc3C2=O)C(=O)N1 [GT-08103, 5-((4-(6,7-dihydro-5H-cyclopenta[4,5]thieno[2,3-d]pyrimidin-4-yl)piperazin-1-yl)methyl)-2-(2,4-dioxotetrahydropyrimidin-1(2H)-yl)isoindoline-1,3-dione]	B (80%< substrate protein remaining % ≤100%)	B (80%< substrate protein remaining % ≤100%)	A (0% ≤ substrate protein remaining % ≤80%)	B (80%< substrate protein remaining % ≤100%)	B (80%< substrate protein remaining % ≤100%)	A (0% ≤ substrate protein remaining % ≤80%)
O=C1CCN(N2Cc3cc(CN4CC=C(c5cccc(F)c5Cl)CC4)ccc3C2=O)C(=O)N1 [GT-08055, 1-(5-((4-(2-chloro-3-fluorophenyl)-3,6-dihydropyridin-1(2H)-yl)methyl)-1-oxoisoindolin-2-yl)dihydropyrimidine-2,4(1H,3H)-dione]	A (0% ≤ substrate protein remaining % ≤80%)	A (0% ≤ substrate protein remaining % ≤80%)	A (0% ≤ substrate protein remaining % ≤80%)	A (0% ≤ substrate protein remaining % ≤80%)	A (0% ≤ substrate protein remaining % ≤80%)	A (0% ≤ substrate protein remaining % ≤80%)
O=C1CCN(N2Cc3cc(CN4CCN(c5cnnc(Cl)c5Cl)CC4)ccc3C2=O)C(=O)N1 [GT-07029, 1-(5-((4-(5,6-dichloropyridazin-4-yl)piperazin-1-yl)methyl)-1-oxoisoindolin-2-yl)dihydropyrimidine-2,4(1H,3H)-dione]	A (0% ≤ substrate protein remaining % ≤80%)	B (80%< substrate protein remaining % ≤100%)	B (80%< substrate protein remaining % ≤100%)	A (0% ≤ substrate protein remaining % ≤80%)	B (80%< substrate protein remaining % ≤100%)	A (0% ≤ substrate protein remaining % ≤80%)
O=C1CCN(N2Cc3cc(CN4CCN(c5nsc6cc(F)ccc56)CC4)ccc3C2=O)C(=O)N1 [GT-07500, 1-(5-((4-(6-fluorobenzo[d]isothiazol-3-yl)piperazin-1-yl)methyl)-1-oxoisoindolin-2-yl)dihydropyrimidine-2,4(1H,3H)-dione]	A (0% ≤ substrate protein remaining % ≤80%)	A (0% ≤ substrate protein remaining % ≤80%)	B (80%< substrate protein remaining % ≤100%)	A (0% ≤ substrate protein remaining % ≤80%)	A (0% ≤ substrate protein remaining % ≤80%)	B (80%< substrate protein remaining % ≤100%)
